Data set [1] relates to lens epithelial cell culture. The conditions noted are these: range required for effective activity; cited from earlier work.
Data set [2] is described as follows: Degradation of H2O2 by microperoxidase (ferroammonium sulfate/thiocyanate H2O2 assay). The class given is biochemical. As for the experimental part:
(FIG. 1A) Effect of cofactors on μPx-11 degradation of H2 O2. 300 μM hydrogen peroxide (H2 O2) was incubated with μPx-11 in 50 mM phosphate buffer, pH 7.0 at 25° C. in 1 ml. At indicated times, 50 μl aliquots were removed for H2 O2 assay as described in the Materials and Methods section. 50 mM phosphate buffer, pH 7.0 buffer+500 μM NADPH, buffer+1 mM ascorbate (Asc), buffer+3 μM (μPx-11), prior solution+500 μM NADPH, as the previous solution but with 1 mM Asc rather than NADPH. 20 μM μPx-11 in 50 mM phosphate buffer pH 7.0. The results represent the average±S.D. of 3 experiments in most cases.
(FIG. 1B) Stability of μPx-11 as measured by ability to degrade H2 O2. 300 μM H2 O2 in 2 ml of 50 mM phosphate buffer, pH. […] The levels of certain components (H2 O2, NADPH or Asc) were brought back to estimated starting concentrations based on prior experiments and the H2 O2 decay again measured. […]
(FIG. 1C) Concentration dependence of μPx-11 in the presence of Asc. […] The data is expressed as nmoles H2 O2 degraded per ml per minute per nmole μPx-11 in 1 ml. The initial H2 O2 degradation rate measured in the first minute is given. […]
H2 O2 was assayed by the method of Hildebrandt et al. (1978), as modified by Spector et al. (1993a) and is based on the oxidation of ferroammonium sulfate in the presence of potassium thiocyanate. […] Hydroxyl radical was determined as previously described (Spector et al., 1993a). […]

No end group written: not given here.

With `CN(C)Cc1ccccc1[Se][Se]c1ccccc1CN(C)C` [2,2'diselenobis (N,N dimethylamino)methyl benzene], in data set [1], the toxicity result is recorded as “toxic in the μM (micromolar) range”.

Turning to `O=c1c2ccccc2[se]n1-c1ccccc1` [Ebselen], the toxicity result in data set [1] was “toxic in the μM (micromolar) range”.

Consider “μPx-8: heme-peptide with the cytochrome C peptide segment containing residue 14 to 21 (CAQCHTVE; cysteine pairing not given here; also: heme-peptide, heme attachment not placed; UniProt P00004 15-22, looked up, fragment)”, for which the “effect of H2O2 on peroxidase” value in data set [2] (absence of Asc) was “inactivated”. In data set [2] (presence of 1 mM Asc), the “ability to degrade H2O2 compared with μPx-11” value was “more active than μPx-11”.

(Values after US6013623A, “Use of heme-peptides to prevent or retard disease associated with oxidative stress” (The Trustees of Columbia University in the City of New York, priority 1997, dated 2000).)
